The record followed here is US20160101106A1, “METHODS FOR TREATING HCV INFECTION” (Inhibikase Therpeutics, Inc., priority 2013, published 2016).

Where two headings read alike, the source gives them in different places.

What all share (format): cell-based, HCV
The subject of one test is HCVpp, Genotype 1b. Kind of test: microbe, parasite or virus in culture.
A further test relates to HCVcc GT2a. Kind of test: Synergistic antiviral potency against HCVcc (AZ-628 with direct-acting antivirals). To be noted: for EC50: read-out: EC50 alone. The procedure: The tested RAF inhibitors were evaluated for an ability to synergize with other current, late stage or marketed direct-acting antivirus (DAAs).
Another test deals with HCVcc, Genotype 2a. Kind of test: HCVcc inhibitor assay in Huh 7.5 cells, Renilla luciferase readout. Conditions: Hepatitis C virus, Huh-7.5.1. The procedure:
The secondary screen, for anti-HCV activity utilized HCVcc, a lab-adapted full infection cycle virus, to evaluate the effect of Raf inhibition on viral entry. The HCVcc inhibitor assay uses Huh 7.5 cells and HCVcc containing the luciferase gene generated from pJ6/JFH1-p7Rluc. Briefly cells are plated one day prior to assay. On the day of assay, media is aspirated. The cells are pre-treated with 100 μl of 1X compound. After 1 h pretreatment, compound containing media is aspirated, HCVcc diluted 1x compound is added to each well. Toxicity plates receive only the test compound in tissue culture medium. […] Compound cytotoxicity is assessed by MTS (CellTiter® 96 Reagent, Promega, Madison Wis.) dye reduction. The % reduction in viral entry is determined and reported. […]
The plasmids carrying HCV J6/JFH1 genome, or chimeric mCon1/JFH1 or mH77/JFH1 genome and Rluc reporter gene were kindly provided by Dr. Charles Rice at Rockefeller University. […] HCVcc infectivity was determined by TCID50 assay. […] The number of HCV positive cells was counted. The TCID50 was calculated according to the Reed and Muench method.
The format of the test plate has been standardized by SOUTHERN. […] Samples were evaluated for antiviral efficacy with triplicate measurements using 6 concentrations at half-log (or other) dilutions in order to determine EC50 values and cellular cytotoxicity, if detectable. […]

The mark [1] stands for this setting: Genotype 1b, luciferase tagged HCV GT-1b pseudotyped virus, Huh 7.5.1, ≧80% confluent cells, MOI 0.02, read-out: EC50.

`CC(C)(C)c1nc(-c2cccc(NS(=O)(=O)c3c(F)cccc3F)c2F)c(-c2ccnc(N)n2)s1` [GSK2118436/dabrafinib]: in the test with HCVpp, Genotype 1b (setting [1]), the EC50 was more than 5000 nM.

In the test on HCVpp, Genotype 1b (Hepatitis C virus, Huh-7.5.1), `CNC(=O)c1cc(Oc2ccc(NC(=O)Nc3ccc(Cl)c(C(F)(F)F)c3)cc2)ccn1` [sorafenib] displayed an EC50 of 1810 nM.

`Cc1ccc(NC(=O)c2cccc(C(C)(C)C#N)c2)cc1Nc1ccc2ncn(C)c(=O)c2c1` [AZ-628]: the EC50 with HCVpp, Genotype 1b (Hepatitis C virus, Huh-7.5.1) came to 420 nM; in the test with HCVcc GT2a (Hepatitis C virus), 300 nM; in the test on HCVcc, Genotype 2a it was 120 nM. Further, the inhibition at 0.025 µM in the test on HCVcc GT2a (Hepatitis C virus, GT2A, IkT-064 25 nM, GS-7977 0 nm) worked out at 0%. Besides, in the test on HCVcc GT2a (Hepatitis C virus, GT2A, IkT-064 50 nM, GS-7977 0 nm), the inhibition at 0.05 µM amounted to 0%. The inhibition at 0.1 µM in the test with HCVcc GT2a (Hepatitis C virus, GT2A, IkT-064 100 nM, GS-7977 0 nm) was determined as 0%. Besides, in the test on HCVcc GT2a (Hepatitis C virus, GT2A, IkT-064 200 nM, GS-7977 0 nm), the inhibition at 0.2 µM stood at 5.15%. Also, the inhibition at 0.4 µM in the test on HCVcc GT2a (Hepatitis C virus, GT2A, IkT-064 400 nM, GS-7977 0 nm) was found to be 73.4%. Also, the “% antiviral inhibition” value with HCVcc GT2a (IkT-064 25 nM, BMS-790052 0 pM) is 2.83%; with HCVcc GT2a (IkT-064 200 nM, BMS-790052 0 pM) it was 17.39%; in the test on HCVcc GT2a (IkT-064 400 nM, BMS-790052 0 pM), 74.25%.

Turning to `CCCS(=O)(=O)Nc1ccc(F)c(C(=O)c2c[nH]c3ncc(-c4ccc(Cl)cc4)cc23)c1F` [Zelboraf/PLX4032], the concentration for a half-maximal effect (EC50) in the test with HCVpp, Genotype 1b (setting [1]) was more than 5000 nM.

For the compound `COC(=O)N[C@H](C(=O)N1CCC[C@H]1c1ncc(-c2ccc(-c3ccc(-c4cnc([C@@H]5CCCN5C(=O)[C@@H](NC(=O)OC)C(C)C)[nH]4)cc3)cc2)[nH]1)C(C)C` [BMS-790052], the 50% effective concentration (EC50) in the test on HCVcc GT2a (Hepatitis C virus, Genotype 2a, single drug) was 0.1 nM. For the same compound, the “% antiviral inhibition” value in the test on HCVcc GT2a (IkT-064 0 nM, BMS-790052 0.781 pM) is 0%; in the test on HCVcc GT2a (IkT-064 0 nM, BMS-790052 1.563 pM) it was 0%; with HCVcc GT2a (IkT-064 0 nM, BMS-790052 3.125 pM), 8.7%; in the test with HCVcc GT2a (IkT-064 0 nM, BMS-790052 6.25 pM), 8.72%; in the test with HCVcc GT2a (IkT-064 0 nM, BMS-790052 12.5 pM) it was 17.27%; in the test with HCVcc GT2a (IkT-064 0 nM, BMS-790052 25 pM), 19.54%. Moreover, the “% antiviral inhibition” value was 33.86% in the test with HCVcc GT2a (IkT-064 0 nM, BMS-790052 50 pM) and 59.54% in the test on HCVcc GT2a (IkT-064 0 nM, BMS-790052 100 pM).

For `Cn1c(Nc2ccc(C(F)(F)F)cc2)nc2cc(Oc3ccnc(-c4ncc(C(F)(F)F)[nH]4)c3)ccc21` [Raf265], the concentration for a half-maximal effect (EC50) in the test with HCVpp, Genotype 1b (Hepatitis C virus, Huh-7.5.1) was 890 nM; in the test on HCVcc, Genotype 2a it was 1050 nM.

As to `CC(C)OC(=O)[C@H](C)N[P@](=O)(OC[C@H]1O[C@@H](n2ccc(=O)[nH]c2=O)[C@](C)(F)[C@@H]1O)Oc1ccccc1` [GS-7977], in the test with HCVcc GT2a (Genotype 2a, single drug), the EC50 worked out at 250 nM. Moreover, in the test with HCVcc GT2a (Genotype 2a, with AZ-628), the “Fold Synergy” value amounted to 5. Moreover, the “% antiviral inhibition” value with HCVcc GT2a (IkT-064 0 nM, GS-7977 1.563 nm) is on record as 0%; in the test on HCVcc GT2a (IkT-064 0 nM, GS-7977 3.125 nm), 0%; in the test with HCVcc GT2a (IkT-064 0 nM, GS-7977 6.25 nm), 0%; with HCVcc GT2a (IkT-064 0 nM, GS-7977 12.5 nm), 0%; in the test on HCVcc GT2a (IkT-064 0 nM, GS-7977 25 nm), 2.65%; with HCVcc GT2a (IkT-064 0 nM, GS-7977 50 nm) it was 11.54%. Moreover, the “% antiviral inhibition” value with HCVcc GT2a (IkT-064 0 nM, GS-7977 100 nm) turned out to be 21.51%; in the test with HCVcc GT2a (IkT-064 0 nM, GS-7977 200 nm), 44.74%.
